Patent US20210255193A1, “LYSINE REACTIVE PROBES AND USES THEREOF” (The Scripps Research Institute, priority 2017, published 2021)

Key:
Assay type in all cases: binding
[1] = system: lysines in the human breast cancer cell MDA-MB-231 proteome; experiment: competitive isoTOP-ABPP, proteome-wide fragment reactivity; conditions: for proteome-wide reactivity: fragments 50-100 μM; for lysines reacted that showed negligible cross-reactivity with activated esters: human cell proteomes
Experimental: In vitro covalent fragment treatment for isoTOP-ABPP. All compounds were made up as solutions in DMSO (100×) and were used at a final concentration of 50 μM for activated esters and 100 μM for guanidinylating agents. For each profiling sample, 0.5 ml of lysate was treated with 5 μl of the 100× compound stock solution or 5 μl of DMSO. Samples were treated with activated esters for
STP-alkyne labeling and click chemistry. For concentration-dependent reactivity measurements by isoTOP-ABPP, 0.5 ml proteome aliquots were treated at ambient temperature with 1 mM STP-alkyne 1 (5 μl of 100 mM stock in DMSO) and 0.1 mM STP alkyne 1 (5 μl of 10 mM stock in DMSO), respectively. For competitive isoTOP-ABPP, after in vitro fragment treatment (detailed above), the samples were labeled for 1 h at ambient temperature with 0.1 mM STP-alkyne 1 (5 μl of 10 mM stock in DMSO). Samples were conjugated by copper-mediated azide-alkyne cycloaddition (CuAAC) to either the light (1 mM STP-alkyne or fragment treated) or heavy (0.1 mM STP-alkyne or DMSO treated) TEV tags (10 μl of 5 mM stocks in DMSO, final concentration=100 μM) using tris(2-carboxyethyl)phosphine hydrochloride
R value calculation and processing. The ratios of light and heavy MS1 peaks for each unique peptide were quantified with a CIMAGE software using default parameters (3 MS1 acquisitions per peak and signal to noise threshold set to 2.5). For reactivity measurements by isoTOP-ABPP, the R value was calculated from the ratio of MS1 peak areas, comparing the 1 mM STP alkyne sample (light TEV tag) with the 0.1 mM STP alkyne sample (heavy TEV tag). For competitive isoTOP-ABPP, the R value was calculated from the ratio of MS1 peak areas, comparing the DMSO treated sample (heavy TEV tag) with the compound treated sample (light TEV tag). […] Ratios for unique peptide entries are calculated for each experiment; overlapping peptides with the same modified lysine (for example, different charge states, MudPIT chromatographic steps or tryptic termini) are grouped together and the median ratio is reported as the final ratio (R). The peptide ratios reported by CIMAGE were further filtered to ensure the removal or correction of low-quality ratios in each individual data set. The quality filters applied were the following: removal of half tryptic peptides; for ratios with high standard deviations from the median (90% of the median or above) the lowest ratio was taken instead of the median; removal of peptides with R=20 and only a single MS2 event triggered during the elution of the parent ion; manual annotation of all the peptides with ratios of 20, removing any peptides with low quality elution profiles that remained after the previous curation steps (only done for competitive isoTOP-ABPP).
Cross-data processing for fragment screening. For compound treated samples, biological replicates of the same condition were averaged, if the standard deviation was below 60% of the mean; otherwise, for lysines with at least one R value <4 for a particular compound, the lowest value of the ratio set was taken. For lysines, where all R values for a particular compound were ≥4, the average was reported. For peptides containing several possible modified lysines, the lysine with the highest number of quantification events was used for analysis and the remaining, redundant peptides were reported as alternative modification sites. Peptides included in the aggregate dataset (those used for further bioinformatics and statistical analyses) were required to have been quantified in 2 experiments for competitive isoTOP-ABPP. Lysines were categorized as liganded, if they had at least one ratio R≥4 (hit fragments). For liganded lysines with R=20 for all liganding events, lysines were required to have been quantified with R=20 in two separate experiments and were further required to have been quantified with R<20 in one additional experiment. […]

[2] = target: T1, EIF3G Eukaryotic translation initiation factor 3 subunit (Homo sapiens, UniProt O75821); experiment: competitive isoTOP-ABPP; conditions: for R value (DMSO/fragment) for probe 1 labeling: O75821_K280; for R value (DMSO/fragment) for probe 1 labeling / isoTOP-ABPP reactivity ratio at lysine O75821_K280: 231 sol; for isoTOP-ABPP ratio, lysine O75821_K280: 50 uM_231_sol_in vitro
T1 construct: isoTOP-ABPP experiments performed in cell lysates (in vitro); endogenous in cells; host or cells: MDA-MB-231 soluble lysate
T1 sequence (O75821 whole entry, the tested form may be a part): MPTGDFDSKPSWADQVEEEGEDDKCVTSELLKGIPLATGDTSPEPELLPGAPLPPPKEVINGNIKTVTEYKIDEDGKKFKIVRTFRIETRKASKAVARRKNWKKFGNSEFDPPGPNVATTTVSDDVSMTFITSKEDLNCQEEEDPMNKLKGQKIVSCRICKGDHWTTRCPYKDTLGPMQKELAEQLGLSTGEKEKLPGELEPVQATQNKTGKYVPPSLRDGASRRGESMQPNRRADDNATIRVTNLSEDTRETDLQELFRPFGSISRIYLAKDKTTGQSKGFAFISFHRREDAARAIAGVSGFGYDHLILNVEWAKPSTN
In short: (§1)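 Readout: isotopic light/heavy MS1 peak-area ratio (R, DMSO heavy over compound light), median across peptides sharing a modified lysine. Lysate received fragment (activated esters 50 μM, guanidinylating agents 100 μM final) or DMSO, then 0.1 mM STP-alkyne probe for 1 h at ambient temperature.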

RTN3 Reticulon-3 = target: T2, RTN3 Reticulon-3 (Homo sapiens, UniProt O95197); experiment: competitive isoTOP-ABPP; conditions: 50 uM, in vitro; for isoTOP-ABPP reactivity ratio at lysine O95197_K1022: 231 sol; for isoTOP-ABPP ratio (R) at liganded lysine O95197_K1022: sol, 231
T2 construct: isoTOP-ABPP experiments performed in cell lysates (in vitro); endogenous in cells; host or cells: MDA-MB-231 soluble lysate
T2 sequence (O95197 1-1032): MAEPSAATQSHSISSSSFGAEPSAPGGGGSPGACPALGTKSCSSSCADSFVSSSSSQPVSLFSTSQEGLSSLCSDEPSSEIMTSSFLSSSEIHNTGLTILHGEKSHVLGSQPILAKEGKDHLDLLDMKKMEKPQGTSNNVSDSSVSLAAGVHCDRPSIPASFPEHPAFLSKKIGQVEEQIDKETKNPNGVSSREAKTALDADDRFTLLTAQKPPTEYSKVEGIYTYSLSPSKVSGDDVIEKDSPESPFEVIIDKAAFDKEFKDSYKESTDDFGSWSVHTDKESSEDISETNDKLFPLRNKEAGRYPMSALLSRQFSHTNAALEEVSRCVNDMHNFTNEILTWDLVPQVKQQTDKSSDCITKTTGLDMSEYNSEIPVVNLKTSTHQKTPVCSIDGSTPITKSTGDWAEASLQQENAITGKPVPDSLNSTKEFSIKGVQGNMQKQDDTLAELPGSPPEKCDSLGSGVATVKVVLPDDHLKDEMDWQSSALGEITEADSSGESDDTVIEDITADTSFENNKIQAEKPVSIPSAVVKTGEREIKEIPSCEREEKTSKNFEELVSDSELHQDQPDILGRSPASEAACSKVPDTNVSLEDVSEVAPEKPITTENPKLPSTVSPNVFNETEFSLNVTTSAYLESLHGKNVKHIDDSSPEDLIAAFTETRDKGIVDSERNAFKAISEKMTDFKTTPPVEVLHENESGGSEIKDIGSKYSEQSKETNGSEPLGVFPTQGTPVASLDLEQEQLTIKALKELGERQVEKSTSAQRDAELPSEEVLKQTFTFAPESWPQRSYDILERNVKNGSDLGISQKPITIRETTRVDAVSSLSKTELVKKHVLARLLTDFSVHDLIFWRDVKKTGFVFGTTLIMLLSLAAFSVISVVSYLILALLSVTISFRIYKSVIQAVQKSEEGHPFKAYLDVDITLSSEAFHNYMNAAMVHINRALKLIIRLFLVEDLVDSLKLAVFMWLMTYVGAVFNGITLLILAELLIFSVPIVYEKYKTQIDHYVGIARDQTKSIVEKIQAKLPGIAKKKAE
In short: as §1

SMILES: O=C(Oc1c(F)c(F)c(F)c(F)c1F)C(c1ccccc1)c1ccccc1 [fragment 20, Pentafluorophenyl 2,2-diphenylacetate]
- proteome-wide reactivity [1]: limited reactivity across the proteome
- R value (DMSO/fragment) for probe 1 labeling ([2]; 50 uM, in vitro): 0.9

SMILES: O=C(Oc1c(F)c(F)c(F)c(F)c1F)c1cc(C(F)(F)F)cc(C(F)(F)F)c1 [fragment 21, Pentafluorophenyl 3,5-bis(trifluoromethyl)benzoate]
- proteome-wide reactivity [1]: low proteome-wide reactivity
- R value (DMSO/fragment) for probe 1 labeling ([2]; 50 uM, in vitro): 1.7

SMILES: Cn1cc(CC(=O)Oc2c(F)c(F)c(F)c(F)c2F)c2ccccc21 [fragment 22, Pentafluorophenyl 2-(1-methyl-1H-indol-3-yl)acetate]
- R value (DMSO/fragment) for probe 1 labeling ([2]; 50 uM, in vitro): 0.6

SMILES: CCn1cc(C(=O)Oc2c(F)c(F)c(F)c(F)c2F)c(=O)c2ccc(C)nc21 [fragment 28, Pentafluorophenyl 1-ethyl-7-methyl-4-oxo-1,4-dihydro-1,8-naphthyridine-3-carboxylate]
- isoTOP-ABPP reactivity ratio at lysine O95197_K1022 (RTN3 Reticulon-3): 1.2

SMILES: O=C(CCc1cn(-c2ccccc2)nc1-c1ccccc1)Oc1ccc([N+](=O)[O-])cc1[N+](=O)[O-] [fragment 29, 2,4-Dinitrophenyl 3-(1,3-diphenyl-1H-pyrazol-4-yl)propanoate]
- proteome-wide reactivity [1]: much greater proteome-wide reactivity
- isoTOP-ABPP reactivity ratio at lysine O75821_K280 ([2]; 50 uM, in vitro): 5.3
- isoTOP-ABPP reactivity ratio at lysine O95197_K1022 (RTN3 Reticulon-3): 6.2

SMILES: O=C(Oc1ccc([N+](=O)[O-])cc1[N+](=O)[O-])C(c1ccccc1)c1ccccc1 [fragment 30, 2,4-Dinitrophenyl 2,2-diphenylacetate]
- proteome-wide reactivity [1]: much greater proteome-wide reactivity
- isoTOP-ABPP reactivity ratio at lysine O75821_K280 ([2]; 50 uM, in vitro): 1.0
- isoTOP-ABPP reactivity ratio at lysine O95197_K1022 (RTN3 Reticulon-3): 20.0

SMILES: COc1cc(CCC(=O)Oc2ccc([N+](=O)[O-])cc2[N+](=O)[O-])cc(OC)c1OC [fragment 33, 2,4-Dinitrophenyl 3-(3,4,5-trimethoxyphenyl)propanoate]
- isoTOP-ABPP reactivity ratio at lysine O95197_K1022 (RTN3 Reticulon-3): 1.4

SMILES: O=C(Oc1ccc([N+](=O)[O-])cc1[N+](=O)[O-])c1ccc2ccccc2n1 [fragment 35, 2,4-Dinitrophenyl quinoline-2-carboxylate]
- isoTOP-ABPP ratio (R) at liganded lysine O75821_K280 ([2]; 50 uM, in vitro, sol, 231): 1.0

SMILES: O=C(Oc1ccc([N+](=O)[O-])cc1[N+](=O)[O-])c1ccccc1Nc1cccc(C(F)(F)F)c1 [fragment 40, 2,4-Dinitrophenyl 2-((3-(trifluoromethyl)phenyl)amino)benzoate]
- isoTOP-ABPP ratio (R) at liganded lysine O95197_K1022 (RTN3 Reticulon-3): 1.7

SMILES: CC(C)(C)OC(=O)NCCCC(=O)Oc1ccc([N+](=O)[O-])cc1[N+](=O)[O-] [fragment 41, 2,4-Dinitrophenyl 4-((tert-butoxycarbonyl)amino)butanoate]
- isoTOP-ABPP ratio (R) at liganded lysine O95197_K1022 (RTN3 Reticulon-3): 1.6

SMILES: O=C(Oc1ccc([N+](=O)[O-])cc1[N+](=O)[O-])C(c1ccccc1)(c1ccccc1)c1ccccc1 [fragment 42, 2,4-Dinitrophenyl 2,2,2-triphenylacetate]
- isoTOP-ABPP ratio (R) at liganded lysine O95197_K1022 (RTN3 Reticulon-3): 1.1

SMILES: N#Cc1ccc(C(=O)Oc2ccc([N+](=O)[O-])cc2[N+](=O)[O-])cc1 [fragment 44, 2,4-Dinitrophenyl 4-cyanobenzoate]
- isoTOP-ABPP ratio, lysine O75821_K280 [2]: 0.9

SMILES: O=C(CCc1ccc2c(c1)OCO2)Oc1ccc([N+](=O)[O-])cc1[N+](=O)[O-] [fragment 45, 2,4-Dinitrophenyl 3-(benzo[d][1,3]dioxol-5-yl)propanoate]
- isoTOP-ABPP ratio, lysine O75821_K280 [2]: 0.9

SMILES: O=C(ON1C(=O)CCC1=O)c1cc(C(F)(F)F)cc(C(F)(F)F)c1 [fragment 46, 3,5-Bis(trifluoromethyl)benzoic acid NHS ester]
- isoTOP-ABPP ratio, lysine O75821_K280 [2]: 0.8

SMILES: COC(=O)NC(=NC(=O)OCC1c2ccccc2-c2ccccc21)n1cccn1 [fragment 49, N-Methoxycarbonyl-N′-9-fluorenylmethoxycarbonyl-pyrazole-1-carboxamidine]
- lysines reacted that showed negligible cross-reactivity with activated esters [1]: 15

SMILES: CC(C)(C)OC(=O)N=C(NC(=O)OC(C)(C)C)n1cccn1 [fragment 50, reference compound]
- lysines reacted that showed negligible cross-reactivity with activated esters [1]: 15

SMILES: NC(=O)c1cc(C(F)(F)F)cc(C(F)(F)F)c1 [fragment 51, reference compound]
- lysine reactivity ([1]; competition with probe 1 (100 μM)): No lysine reactivity was observed
